Patent publication US20240199640A1, “NEGATIVE ALLOSTERIC MODULATORS OF METABOTROPIC GLUTAMATE RECEPTOR 2” (priority 2021, published 2024)
Read-outs that look alike come from different tables or passages of the source.

Experiments:
[1] = system: central mGlu2 and mGlu3 receptors; settings: in vivo; cited from earlier work
C57Bl6/J mice = settings: cited from earlier work
Helpless (H) mice = settings: cited from earlier work; for activity in the tail suspension test: Helpless (H) mice
rat = settings: normal animals; cited from earlier work
mouse = settings: normal animals; cited from earlier work
mice = settings: treated mice; cited from earlier work
[2] = system: Aβ-induced neurodegeneration; settings: cited from earlier work
human mGlu2 = biological target: T1, human mGlu2 (Homo sapiens, UniProt Q14416); test: mGlu GIRK cell-based thallium flux assay, human mGlu2; settings: HEK-293 cells co-expressing human mGlu2 and GIRK; EC80 glutamate; Tl flux
T1 construct: expressed in transfected cells; host or cells: HEK-293
T1 sequence (Q14416 19-872): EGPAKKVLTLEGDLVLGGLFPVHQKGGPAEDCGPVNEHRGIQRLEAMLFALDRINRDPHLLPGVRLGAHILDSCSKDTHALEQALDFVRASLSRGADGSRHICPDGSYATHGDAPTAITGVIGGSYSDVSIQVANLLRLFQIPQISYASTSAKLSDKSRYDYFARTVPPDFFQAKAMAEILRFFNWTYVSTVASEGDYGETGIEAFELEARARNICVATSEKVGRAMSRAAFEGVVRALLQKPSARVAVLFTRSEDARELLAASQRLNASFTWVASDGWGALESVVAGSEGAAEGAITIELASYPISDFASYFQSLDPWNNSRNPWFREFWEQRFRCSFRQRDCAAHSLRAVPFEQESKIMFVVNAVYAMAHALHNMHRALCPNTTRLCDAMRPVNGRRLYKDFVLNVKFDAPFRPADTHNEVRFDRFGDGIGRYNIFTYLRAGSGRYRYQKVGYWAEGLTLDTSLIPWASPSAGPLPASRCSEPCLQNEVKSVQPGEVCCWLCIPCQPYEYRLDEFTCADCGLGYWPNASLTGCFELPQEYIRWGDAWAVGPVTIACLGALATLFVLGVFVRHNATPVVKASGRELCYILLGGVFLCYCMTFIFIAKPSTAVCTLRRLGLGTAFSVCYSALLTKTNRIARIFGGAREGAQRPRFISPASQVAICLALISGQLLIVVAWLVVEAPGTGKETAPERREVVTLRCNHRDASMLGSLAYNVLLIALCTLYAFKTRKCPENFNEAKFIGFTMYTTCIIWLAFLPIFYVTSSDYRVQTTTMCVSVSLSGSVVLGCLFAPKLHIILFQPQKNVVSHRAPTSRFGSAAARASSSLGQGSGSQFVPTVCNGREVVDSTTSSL
Procedure: The day before the assay, GIRK cells co-expressing human mGlu3, human or rat mGlu2, as described above, were plated in black-walled, clear-bottomed, amine-coated 384-well plates at a density of 15,000 cells/20 μL/well in the assay medium (glutamine-depleted basal DMEM supplemented with 10% dialyzed FBS, 20 mM HEPES, 1 mM sodium pyruvate). Cells were incubated at 37° C. in the presence of 5% CO2. […] Cells were washed with assay buffer using a microplate washer to remove the medium, resulting in 20 μL of buffer remaining in each well. Immediately, 20 μL of 2× Thallos dye solution was added to cells, and incubated for one hour at 25° C. During the cell dye loading incubation period, a 10-point concentration serial dilution of compound was created from a 10 mM DMSO compound stock by performing a 1:3 serial dilution in DMSO using the Bravo liquid handler. The 2× compound plate was generated by transferring 0.24 μL of the diluted compound in each well to a daughter plate using an Echo acoustic liquid handler.
(§1) After dye-loading, cell plates were washed with assay buffer to remove excess extracellular dye using a microplate washer, resulting in 20 μL of buffer remaining in each well. After a ten-minute equilibration period, cell, compound and agonist plates were loaded into a Hamamatsu μCell kinetic imaging plate reader equipped with liquid handler to monitor fluorescence changes at 480 nm excitation and 540 nm emission settings. Briefly, after collection of baseline fluorescence, 20 μL of compound was added and incubated for two minutes and twenty seconds. This is immediately followed by adding 10 μL of glutamate-thallium buffer to the wells containing compound. The fluorescent signal was monitored an additional 2.5 minutes after the glutamate addition. Multiple reference wells containing no compound received either no glutamate (for a baseline reference), […] glutamate, or ECmax glutamate (for normalization to maximum response). Fluorescence was measured throughout the experiment at a frequency of 1 measurement per every 2 seconds before the glutamate addition and a frequency of 1 measurement per every 1 second after the glutamate addition. Each compound concentration series occurred one time in each plate, and replicates from two or three plates were used in each experimental run. Thallium solutions were handled and disposed of according to guidelines from the Vanderbilt University Chemical Safety department.
Data were normalized using a static ratio function (F/F0) by dividing every fluorescent measurement by the initial fluorescent value for the corresponding well. The increase in signal resulting from the glutamate/thallium addition of the second add was measured by determining the slope from 3 seconds to 13 seconds after the addition. The average of all baseline slopes (no compound, no glutamate) was determined and this value was subtracted from all other slope values. The average of all ECmax slopes was determined and this value was used to normalize the baseline-corrected slopes to a percent max value (% Emax). The % Emax values for each compound series were plotted versus the log of the concentration and fit to a 4-parameter logistical equation with no fixed parameters.
Potency is reported as the IC50 resulting from the curve fit.

human mGlu3 = biological target: T2, human mGlu3 (Homo sapiens, UniProt Q14832); test: mGlu GIRK cell-based thallium flux assay, human mGlu3; settings: HEK-293 cells co-expressing human mGlu3 and GIRK; EC80 glutamate; Tl flux
T2 construct: expressed in transfected cells; host or cells: HEK-293
T2 sequence (Q14832 23-879): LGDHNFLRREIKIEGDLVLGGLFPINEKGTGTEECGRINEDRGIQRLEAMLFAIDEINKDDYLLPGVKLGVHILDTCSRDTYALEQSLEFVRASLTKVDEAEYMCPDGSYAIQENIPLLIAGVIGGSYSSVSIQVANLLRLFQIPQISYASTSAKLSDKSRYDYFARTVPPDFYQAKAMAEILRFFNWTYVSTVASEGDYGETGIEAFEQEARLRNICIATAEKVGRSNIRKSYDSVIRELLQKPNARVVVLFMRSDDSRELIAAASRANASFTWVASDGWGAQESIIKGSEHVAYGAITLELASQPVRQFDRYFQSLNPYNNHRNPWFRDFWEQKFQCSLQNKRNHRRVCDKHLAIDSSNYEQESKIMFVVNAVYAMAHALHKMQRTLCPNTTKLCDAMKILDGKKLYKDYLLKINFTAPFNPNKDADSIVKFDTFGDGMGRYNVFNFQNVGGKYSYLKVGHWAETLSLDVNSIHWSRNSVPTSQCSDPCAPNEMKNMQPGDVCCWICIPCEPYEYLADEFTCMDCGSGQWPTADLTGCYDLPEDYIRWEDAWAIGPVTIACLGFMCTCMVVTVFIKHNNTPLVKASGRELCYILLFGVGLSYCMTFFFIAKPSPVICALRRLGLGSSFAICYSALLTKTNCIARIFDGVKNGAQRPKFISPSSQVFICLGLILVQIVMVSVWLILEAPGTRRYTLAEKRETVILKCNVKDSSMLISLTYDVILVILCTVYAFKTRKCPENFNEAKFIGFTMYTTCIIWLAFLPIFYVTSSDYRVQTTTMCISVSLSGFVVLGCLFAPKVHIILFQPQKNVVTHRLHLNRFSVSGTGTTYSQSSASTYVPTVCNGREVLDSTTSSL
Procedure: Human embryonic kidney (HEK-293) cell lines stably co-expressing human or rat mGlu2 and G protein-coupled inwardly rectifying potassium (GIRK) channels, or human mGlu3 and GIRK, were used for in vitro evaluation of compound activity in thallium flux assay using a fluorescent thallium indicator dye.
The day before the assay, GIRK cells co-expressing human mGlu3, human or rat mGlu2, as described above, were plated in black-walled, clear-bottomed, amine-coated 384-well plates at a density of 15,000 cells/20 μL/well in the assay medium (glutamine-depleted basal DMEM supplemented with 10% dialyzed FBS, 20 mM HEPES, 1 mM sodium pyruvate). Cells were incubated at 37° C. in the presence of 5% CO2. The next day, assay buffer (Hanks balanced salt solution, 20 mM HEPES, 4.16 mM sodium bicarbonate, pH 7.2) was prepared to dilute compounds and Thallos AM fluorescent dye solution. The 2× Thallos dye solution (final concentration 0.34 μM to the cells) was prepared by mixing the dye stock (2.97 mM in DMSO) to 1:1 with 10% pluronic acid before adding to the assay buffer. Cells were washed with assay buffer using a microplate washer to remove the medium, resulting in 20 μL of buffer remaining in each well. Immediately, 20 μL of 2× Thallos dye solution was added to cells, and incubated for one hour at 25° C. During the cell dye loading incubation period, a 10-point concentration serial dilution of compound was created from a 10 mM DMSO compound stock by performing a 1:3 serial dilution in DMSO using the Bravo liquid handler. The 2× compound plate was generated by transferring 0.24 μL of the diluted compound in each well to a daughter plate using an Echo acoustic liquid handler. This is further diluted in 40 μL assay buffer, resulting in a range from 30 μM to 1.5 nM final concentration in the assay. The agonist plate (5×) was prepared to include EC80 glutamate concentration (a concentration to elicit 80% of a maximally effective glutamate concentration) in thallium buffer (125 mM […], 1 mM magnesium sulfate, 1.8 mM calcium sulfate, 5 mM glucose, 10 mM HEPES, pH 7.2, 12.5 mM thallium sulfate).
as §1
Data were normalized using a static ratio function (F/F0) by dividing every fluorescent measurement by the initial fluorescent value for the corresponding well. The increase in signal resulting from the glutamate/thallium addition of the second add was measured by determining the slope from 3 seconds to 13 seconds after the addition. […]

group II mGlu receptors = settings: cited from earlier work

SMILES | IC50 (human mGlu2) | Human mGlu3 GIRK IC50 (nM) (human mGlu3) | other results
Cc1cc(-c2cccc(C3=Nc4cc(C)c(C(F)(F)F)cc4NC(=O)C3)c2)cc(C)n1 [RO4491533] | – | – | hypolocomotor effect of mGlu2/3 agonist (LY379268) [1]: reversed; immobility time in the FST (C57Bl6/J mice): dose-dependently reduced; activity in the tail suspension test (Helpless (H) mice): active
N[C@](CC1c2ccccc2Oc2ccccc21)(C(=O)O)[C@H]1C[C@@H]1C(=O)O [LY341495] | – | – | Antidepressant-like effects in rat forced swim test (rat): Antidepressant-like effects; Antidepressant-like effects in mouse tail-suspension test (mouse): Antidepressant-like effects; hypolocomotor effect of mGlu2/3 agonist (LY379268) [1]: achieved the same result; immobility time in the FST (C57Bl6/J mice): dose-dependently reduced; activity in the tail suspension test (Helpless (H) mice): active; antidepressant effect in helpless mice (Helpless (H) mice; acute administration): potent antidepressant effect; marble-burying behavior (mice): significantly reduce; Aβ-induced neurodegeneration [2]: prevented
[2H]C([2H])([2H])Oc1ccc(-c2cc3c(cc2OCc2csc(C)n2)CNC3=O)cc1 [Compound 22, 6-(4-(methoxy-d3)phenyl)-5-((2-methylthiazol-4-yl)methoxy)isoindolin-1-one] | 115 nM | Inactive | –
Cc1csc(COc2cc3c(cc2-c2ccc(F)cc2)C(=O)NC3)n1 [Compound 3, 6-(4-fluorophenyl)-5-((4-methylthiazol-2-yl)methoxy)isoindolin-1-one] | 418 nM | Inactive | –
COc1ccc(-c2cc3c(cc2OCc2csc(C)n2)CNC3=O)c(F)c1 [Compound 15, 6-(2-fluoro-4-methoxyphenyl)-5-((2-methylthiazol-4-yl)methoxy)isoindolin-1-one] | 360 nM | Inactive | –
Cc1nc(COc2cc3c(cc2-c2ccc(F)cc2)C(=O)NC3)cs1 [Compound 18, 6-(4-fluorophenyl)-5-((2-methylthiazol-4-yl)methoxy)isoindolin-1-one] | 363 nM | Inactive | –
O=C1NCc2cc(OCc3ccn(C(F)F)n3)c(-c3ccc(F)cc3)cc21 [Compound 17, 5-((1-(difluoromethyl)-1H-pyrazol-3-yl)methoxy)-6-(4-fluorophenyl)isoindolin-1-one] | 292 nM | Inactive | –
[2H]C([2H])([2H])Oc1ccc(-c2cc3c(cc2OCc2ccn(C)n2)CNC3=O)cc1 [Compound 24, 6-(4-(methoxy-d3)phenyl)-5-((1-methyl-1H-pyrazol-3-yl)methoxy)isoindolin-1-one] | 99.5 nM | Inactive | –
Cc1ncc(COc2cc3c(cc2-c2ccc(F)cc2)C(=O)NC3)s1 [Compound 2, 6-(4-fluorophenyl)-5-((2-methylthiazol-5-yl)methoxy)isoindolin-1-one] | 380 nM | Inactive | –
Cc1ccc(COc2cc3c(cc2-c2ccc(F)cc2)C(=O)NC3)cn1 [Compound 5, 6-(4-fluorophenyl)-5-((6-methylpyridin-3-yl)methoxy)isoindolin-1-one] | 392 nM | Inactive | –
Cn1ccc(COc2cc3c(cc2-c2ccc(C#N)cc2)C(=O)NC3)n1 [Compound 14, 4-(6-((1-methyl-1H-pyrazol-3-yl)methoxy)-3-oxoisoindolin-5-yl)benzonitrile] | 242 nM | Inactive | –
[2H]C([2H])([2H])Oc1ccccc1-c1cc2c(cc1OCc1ccn(C)n1)CNC2=O [Compound 23, 6-(2-(methoxy-d3)phenyl)-5-((1-methyl-1H-pyrazol-3-yl)methoxy)isoindolin-1-one] | 7720 nM | Inactive | –
COc1ccc(-c2cc3c(cc2OCc2ccn(C)n2)CNC3=O)cc1 [Compound 12, 6-(4-methoxyphenyl)-5-((1-methyl-1H-pyrazol-3-yl)methoxy)isoindolin-1-one] | 170 nM | Inactive | –
COc1ccc(-c2cc3c(cc2OCc2ccn(C(F)F)n2)CNC3=O)c(F)c1 [Compound 25, 5-((1-(difluoromethyl)-1H-pyrazol-3-yl)methoxy)-6-(2-fluoro-4-methoxyphenyl)isoindolin-1-one] | 40 nM | Inactive | –
CCS(=O)(=O)N(Cc1cccnc1)c1cccc(-c2ccc(C#N)cc2)c1 [LY566332] | – | – | Aβ-induced neurodegeneration [2]: amplified
CCCCCCCOC(=O)[C@@]1(F)[C@@H]2C[C@@H](OCc3ccc(Cl)c(Cl)c3)[C@@](N)(C(=O)O)[C@@H]21 [BCI-838] | – | – | levels of monomeric and oAβ peptides in the hippocampus and cortex (group II mGlu receptors; three months of treatment, two AD mouse models): decreased; Dutch APP transgene-associated learning and memory impairment (group II mGlu receptors; three months of treatment): reversed; anxiolytic effects (group II mGlu receptors; three months of treatment): anxiolytic effects; hippocampal progenitor cell proliferation (group II mGlu receptors; wild-type and Alzheimer's diseased mice, 3 months): stimulated
Cc1ocnc1COc1cc2c(cc1-c1ccc(F)cc1)C(=O)NC2 [Compound 9, 6-(4-fluorophenyl)-5-((5-methyloxazol-4-yl)methoxy)isoindolin-1-one] | 150 nM | Inactive | –
N[C@]1(C(=O)O)[C@H]2[C@@H](C[C@H]1OCc1ccc(Cl)c(Cl)c1)[C@]2(F)C(=O)O [BCI-632] | – | – | time for which brain concentration was sufficient to inhibit group II mGlu receptors (group II mGlu receptors; active metabolite after once-daily oral dosing of prodrug BCI-838): 22 h
CNCCC(Oc1ccc(C(F)(F)F)cc1)c1ccccc1 (stereo not drawn) [fluoxetine] | – | – | antidepressant effect in helpless mice (Helpless (H) mice; chronic (21 days) treatment): full antidepressant effect
COc1ccc(-c2cc3c(cc2OCc2ccn(C)n2)CNC3=O)c(F)c1 [Compound 11, 6-(2-fluoro-4-methoxyphenyl)-5-((1-methyl-1H-pyrazol-3-yl)methoxy)isoindolin-1-one] | 131 nM | Inactive | –
[2H]C([2H])([2H])Oc1ccccc1-c1cc2c(cc1OCc1csc(C)n1)CNC2=O [Compound 21, 6-(2-(methoxy-d3)phenyl)-5-((2-methylthiazol-4-yl)methoxy)isoindolin-1-one] | 1320 nM | Inactive | –
